“Also recorded” adds a separate entry of the source.
Assays:
[1] = Stability of NMN in drinking water; assay type: physicochemical
[2] = Bone mineral density by dual-energy X-ray absorptiometry (DXA); assay type: in vivo, mouse; details: 12-month time point, 17-18 month old mice
Protocol: (§1) A 12 month-long NMN administration study using wild-type mice under a regular chow-fed condition was conducted. NMN was administered through drinking water, and two doses of NMN, 100 and 300 mg/kg body weight/day, were tested. […] To assess beneficial and possible adverse effects of NMN, a variety of physiological parameters were periodically monitored, including body weight, body temperature, food and water intake, fed and fasted blood glucose levels, fed and fasted plasma lipid panels, and glucose and insulin tolerance, in NMN-administered and control mice. Blood chemistry, blood cell counts, urine strip test, and other physiological tests including physical activity test were also checked.
The inventors measured the bone mineral density (BMD) of control and NMN-treated mice at the 12-month time point of a 12 month long NMN administration experiment by dual-energy X-ray absorptiometry (DXA). At this time point, mice were 17-18 month old.

[3] = Contextual and cued fear conditioning tests in HFD-fed mice; assay type: in vivo, mouse
Protocol: Two groups of wild-type C57BL/6 mice at […] of age were fed a high fat diet (HFD) containing 42% of the total calories from fat (TD88137; Harlan Taklad). NMN at a dose of 300 mg/kg/day began to be administered through drinking water to one of the HFD-fed groups after 4 months of HFD feeding. The control group was fed a regular chow. After 8 months of HFD feeding with or without 4 months of NMN treatment, the contextual fear conditioning test, a sensitive test to examine the memory function that involves the hippocampus, was conducted for mice in these three groups.
FIG. 10 illustrates freezing responses of regular chow-fed control, HFD-fed, and HFD-fed, NMN-treated mice in contextual and cued fear conditioning tests on Day 1, Day 2 and Day3. NMN was administered at the dose of 300 mg/kg/day for 4 months. On Day 1 of the study, mice were given an auditory cue and then a mild electric foot shock, and a time of freezing was analyzed individually. On Day 2, the trained mice were placed into a training chamber with no tone cues, and their freezing responses were evaluated. […] The results were analyzed by one-way ANOVA with unweighted quadratic term. All values are presented as mean±SEM (n=17, 15, and 12 for regular chow-fed control, HFD-fed, and HFD-fed, NMN-treated mice, respectively). **P<0.01; *P<0.05.

[4] = 12 month-long NMN administration study: adverse effects and toxicity; assay type: in vivo
Protocol: as §1

[5] = Oxygen consumption, energy expenditure, respiratory quotient (Oxymax Lab Animal Monitoring System); assay type: in vivo, mouse; details: 100 mg/kg and 300 mg/kg groups, 12 month time point
Protocol: as §1
In this long-term NMN administration study (See Methods; Administration of NMN through Drinking Water and Determination of NMN Stability and Toxicity), the inventors measured oxygen consumption, energy expenditure, and respiratory quotient for control, mice administered 100 mg/kg NMN per day and mice administered 300 mg/kg NMN per day at the 12 month time point by using the Oxymax Lab Animal Monitoring System (Columbus Instruments, Columbus, OH).

Question: Which results are given for NC(=O)c1ccc[n+]([C@@H]2O[C@H](COP(=O)([O-])O)[C@@H](O)[C@H]2O)c1 [NMN, nicotinamide mononucleotide]?
Answer: stability of NMN in drinking water ([1]; in solution): stable in solution; degradation of NMN in drinking water ([1]; room temperature): No significant degradation; increase in the BMD ([2]; 100 mg/kg group): 2.8%; increase in the BMD ([2]; 300 mg/kg group): 5.9%; freezing responses, conditioning session and cued fear conditioning ([3]; Day 1 and Day 3, NMN 300 mg/kg/day for 4 months): did not differ from those of control mice; freezing responses, contextual fear conditioning test ([3]; Day 2, NMN 300 mg/kg/day for 4 months): indistinguishable from those of regular chow-fed control mice; adverse effects or signs of toxicity ([4]; 100 mg/kg or 300 mg/kg body weight/day in drinking water, 12 months): no adverse effects, such as malnutrition, or signs of toxicity were observed; also recorded: without showing any serious side effects; water intake ([4]; NMN in drinking water, through the experimental period): did not change significantly; adverse effect on glucose metabolism ([4]; long-term NMN administration): does not show any adverse effect on glucose metabolism; oxygen consumption [5]: significantly increased; respiratory quotient [5]: significantly decreased; energy expenditure ([5]; through 24 hours): significant increases
